# Source: US20250154169A1, “COMPOUNDS AND METHODS FOR MODULATING SPLICING” (REMIX THERAPEUTICS INC., priority 2021, published 2025)
# Where two headings read alike, the source gives them in different places.
# What was measured:
# Type in all cases: cell-based, human
# HTT mRNA [1] = assay: Splicing RT-qPCR assay, HTT canonical (CJ) and alternative (AJ) junction mRNA; conditions: Homo sapiens, A673 or K562 cells, 24 hours compound treatment; for IC50: 24 h, read-out: HTT CJ (IC50, decrease in canonical junction mRNA); for AC50: read-out: HTT AJ (AC50, increase in alternative junction mRNA)
# Summary of the method: (§1)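 Canonical (CJ) and alternative-exon (AJ) junction mRNAs quantified by one-step RT-qPCR in cell lysates, normalized to housekeeping PPIA for A673 and GAPDH or GUSB for K562. Cells were exposed 24 h at 37 °C to 11-point 3-fold compound series from 10 uM final, with DMSO at or below 0.25%.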
# MYB mRNA = assay: Splicing RT-qPCR assay, MYB canonical (CJ) and alternative (AJ) junction mRNA; conditions: Homo sapiens; for AC50: read-out: MYB AJ (AC50, increase in alternative junction mRNA)
# Summary of the method: as §1
# SMN2 mRNA = assay: Splicing RT-qPCR gene panel, SMN2 canonical junction (CJ) mRNA; conditions: Homo sapiens, Tables 4A/4B, read-out: SMN2 (IC50, decrease in CJ mRNA, gene panel)
# Method: (§2) Compounds described herein were used to modulate RNA transcript abundance in cells. The expression of a target mRNA was measured by detecting the formation of an exon-exon junction in the canonical transcript (CJ). A compound mediated exon-inclusion event was detected by observing an increase in formation of a new junction with an alternative exon (AJ). Real-time qPCR assays were used to detect these splicing switches and interrogate the potency of various compounds towards different target genes. A high-throughput real time quantitative PCR (RT-qPCR) assay was developed to measure these two isoforms of the mRNA (CJ and AJ) for exemplary genes, such as HTT, SMN2, and MYB, together with a control housekeeping gene, GAPDH or GUSB or PPIA, used for normalization. Briefly, the A673 or K562 cell line was treated with various compounds described herein (e.g., compounds of Formula (I)). After treatment, the levels of the HTT, MYB, or SMN2 mRNA targets were determined from each sample of cell lysate by cDNA synthesis followed by qPCR.
# (§3) The A673 cell line was cultured in DMEM with 10% FBS. Cells were diluted with full growth media and plated in a 96-well plate (15,000 cells in 100 ul media per well). The plate was incubated at 37° C. with 5% CO2 for 24 hours to allow cells to adhere. An 11-point 3-fold serial dilution of the compounds was made in DMSO then diluted in media in an intermediate plate. Compounds were transferred from the intermediate plate to the cell plate with the top dose at a final concentration of 10 uM in the well. Final DMSO concentration was kept at or below 0.25%. The cell plate was returned to the incubator at 37° C. with 5% CO2 for an additional 24 hours.
# (§4) The K562 cell line was cultured in IMDM with 10% FBS. For K562, cells were diluted with full growth media and plated in either a 96-well plate (50,000 cells in 50 uL media per well) or a 384-well plate (8,000-40,000 cells in 45 uL media per well). An 11-point 3-fold serial dilution of the compounds were made in DMSO then diluted in media in an intermediate plate. Compound was transferred from the intermediate plate to the cell plate with the top dose at a final concentration of 10 uM in the well. Final DMSO concentration was kept at or below 0.25%. Final volume was 100 uL for 96-well plate and 50 uL for 384-well plate. The cell plate was then placed in an incubator at 37° C. with 5% CO2 for 24 hours.
# (§5) The cells were then gently washed with 50 uL-100 uL cold PBS before proceeding to addition of lysis buffer. 30 uL-50 uL of room temperature lysis buffer with DNAse I (and optionally RNAsin) was added to each well. Cells were shaken/mixed thoroughly at room temperature for 5-10 minutes for lysis to take place and then 3 uL-5 uL of room temperature stop solution was added and wells were shaken/mixed again. After 2-5 minutes, the cell lysate plate was transferred to ice for RT-qPCR reaction setup. The lysates could also be frozen at −80° C. for later use.
# (§6) In some cases, a direct lysis buffer was used. An appropriate volume of 3× lysis buffer (10 mM Tris, 150 mM NaCl, 1.5%-2.5% Igepal and 0.1-1 U/uL RNAsin, pH 7.4) was directly added to either K562 or A673 cells in media and mixed by pipetting 3 times. The plates were then incubated at room temperature with shaking/rocking for 20-50 minutes to allow for lysis to take place. After this time, the cell lysate plate was transferred to ice to set up for the RT-qPCR reactions. The lysates could also be frozen at −80° C. for later use.
# (§7) To set up 10 uL RT-qPCR reactions, cell lysates were transferred to 384-well qPCR plates containing the master mix according to the table below. The plates were sealed, gently vortexed, and spun down before the run. The volumes were adjusted accordingly in some instances where the reaction was carried in 20 μL. The table below summarizes the components of the RT-qPCR reactions:
# (§8) The RT-qPCR reaction was performed using a QuantStudio (ThermoFisher) under the following fast cycling conditions. […]
# Target C mRNA = assay: Splicing RT-qPCR gene panel, Target C canonical junction (CJ) mRNA; conditions: Homo sapiens, Tables 4A/4B, read-out: Target C (IC50, decrease in CJ mRNA, gene panel)
# Method: as §2, §3, §4, §5, §6, §7, §8
# HTT mRNA [2] = assay: Splicing RT-qPCR gene panel, HTT canonical junction (CJ) mRNA; conditions: Homo sapiens, Tables 4A/4B, read-out: HTT (IC50, decrease in CJ mRNA, gene panel)
# Method: as §2, §3, §4, §5, §6, §7, §8
# [3] = 24 h, A673 or K562 cells, 24 hours compound treatment, RT-qPCR
# [4] = 24 h, A673 or K562 cells, 24 hours compound treatment, RT-qPCR, read-out: MYB CJ (IC50, decrease in canonical junction mRNA)
# [5] = Tables 4A/4B, canonical junction qPCR panel, read-out: MYB (IC50, decrease in CJ mRNA, gene panel)
SMILES,IC50 (HTT mRNA [1]) [µM],AC50 (HTT mRNA [1]) [µM],AC50 (MYB mRNA; [3]) [µM],IC50 (MYB mRNA; [4]) [µM],IC50 (MYB mRNA; [5]) [µM],IC50 (SMN2 mRNA) [µM],IC50 (Target C mRNA) [µM],IC50 (HTT mRNA [2]) [µM]
"Cc1cn2cc(NC(=O)c3ccc(N4CC[C@@H](N(C)C)C4)c4cn(C)nc34)cc(F)c2n1 (single isomer, unassigned) [Compound 350, 4-[3-(dimethylamino)pyrrolidin-1-yl]-N-{8-fluoro-2-methylimidazo[1,2-a]pyridin-6-yl}-2-methylindazole-7-carboxamide]",1 to 10,1 to 10,< 0.1,< 0.1,< 0.1,< 0.1,> 10,1 to 10
"Cc1cn2cc(NC(=O)c3ccc(N4CC[C@H](N(C)C)C4)c4cn(C)nc34)cc(F)c2n1 (single isomer, unassigned) [Compound 351, 4-[3-(dimethylamino)pyrrolidin-1-yl]-N-{8-fluoro-2-methylimidazo[1,2-a]pyridin-6-yl}-2-methylindazole-7-carboxamide]",1 to 10,1 to 10,< 0.1,< 0.1,< 0.1,< 0.1,> 10,1 to 10
"Cc1cn2cc(NC(=O)c3ccc(N4CCN[C@@H](C)C4)c4cn(C)nc34)cc(F)c2n1 (single isomer, unassigned) [Compound 352]",0.1 to 1,0.1 to 1,< 0.1,< 0.1,< 0.1,< 0.1,1 to 10,0.1 to 1
"Cc1cn2cc(NC(=O)c3ccc(N4CCN[C@H](C)C4)c4cn(C)nc34)cc(F)c2n1 (single isomer, unassigned) [Compound 353]",0.1 to 1,0.1 to 1,< 0.1,< 0.1,< 0.1,< 0.1,1 to 10,0.1 to 1
"CNC1CCN(c2ccc(C(=O)Nc3cc(F)c4nc(C)cn4c3)c3nn(C)cc23)C1 (stereo in doubt) [Compound 387, N-{8-fluoro-2-methylimidazo[1,2-a]pyridin-6-yl}-2-methyl-4-[(3R)-3-(methylamino)pyrrolidin-1-yl]indazole-7-carboxamide]",1 to 10,1 to 10,< 0.1,< 0.1,< 0.1,< 0.1,> 10,1 to 10
"CNC1CCN(c2ccc(C(=O)Nc3cc(F)c4nc(C)cn4c3)c3nn(C)cc23)C1 (stereo in doubt) [Compound 388, (S)—N-(8-fluoro-2-methylimidazo[1,2-a]pyridin-6-yl)-2-methyl-4-(3-(methylamino)pyrrolidin-1-yl)-2H-indazole-7-carboxamide]",1 to 10,1 to 10,–,–,< 0.1,< 0.1,> 10,> 10
"Cc1cn2cc(NC(=O)c3c(F)cc(N4CCC(N(C)C)C4)c4cn(C)nc34)cc(F)c2n1 (stereo in doubt) [Compound 463, 4-[(3R)-3-(dimethylamino)pyrrolidin-1-yl]-6-fluoro-N-{8-fluoro-2-methylimidazo[1,2-a]pyridin-6-yl}-2-methylindazole-7-carboxamide]",0.1 to 1,0.1 to 1,< 0.1,< 0.1,< 0.1,< 0.1,> 10,0.1 to 1
"Cc1cn2cc(NC(=O)c3c(F)cc(N4CCC(N(C)C)C4)c4cn(C)nc34)cc(F)c2n1 (stereo in doubt) [Compound 464, 4-[(3S)-3-(dimethylamino)pyrrolidin-1-yl]-6-fluoro-N-{8-fluoro-2-methylimidazo[1,2-a]pyridin-6-yl}-2-methylindazole-7-carboxamide]",0.1 to 1,0.1 to 1,< 0.1,< 0.1,< 0.1,< 0.1,1 to 10,0.1 to 1
Cc1cn2cc(NC(=O)c3ccc(C4CCNCC4)c4c3OCC4)cc(F)c2n1 [Compound 188],> 10,> 10,1 to 10,1 to 10,1 to 10,0.1 to 1,1 to 10,> 10
Cc1cn2cc(NC(=O)c3ccc(N(C)C4CC(C)(C)NC(C)(C)C4)c4cc(C)oc34)cc(F)c2n1 [Compound 201],> 10,> 10,> 10,> 10,> 10,1 to 10,> 10,> 10
Cc1cn2cc(NC(=O)c3ccc(N4CCC(N(C)C)C4)c4cc(C)oc34)cc(F)c2n1 (centres unmarked) [Compound 202],> 10,1 to 10,< 0.1,0.1 to 1,0.1 to 1,< 0.1,> 10,> 10
Cc1cn2cc(NC(=O)c3ccc(N4CCC(N5CCCC5)C4)c4cc(C)oc34)cc(F)c2n1 (centres unmarked) [Compound 204],1 to 10,1 to 10,0.1 to 1,0.1 to 1,0.1 to 1,< 0.1,1 to 10,1 to 10
CCOc1nc(NC(=O)c2ccc(N3CC[C@@H](NC)C3)c3cn(C)nc23)cn2cc(C)nc12 [Compound 433],–,–,–,–,0.1 to 1,< 0.1,1 to 10,1 to 10
"C=C(C)n1cc2c(N3CCNCC3)ccc(C(=O)Nc3cc(F)c4nc(C)cn4c3)c2n1 [Compound 440, N-{8-fluoro-2-methylimidazo[1,2-a]pyridin-6-yl}-4-(piperazin-1-yl)-2-(prop-1-en-2-yl) indazole-7-carboxamide]",–,–,–,–,< 0.1,< 0.1,1 to 10,< 0.1
"C/C=C/n1cc2c(N3CCNCC3)ccc(C(=O)Nc3cc(F)c4nc(C)cn4c3)c2n1 [Compound 445, N-{8-fluoro-2-methylimidazo[1,2-a]pyridin-6-yl}-4-(piperazin-1-yl)-2-[(1E)-prop-1-en-1-yl]indazole-7-carboxamide]",–,–,–,–,< 0.1,< 0.1,0.1 to 1,< 0.1
CCNC1CCN(c2cc(F)c(C(=O)Nc3cn4cc(C)nc4c(F)c3OC)c3nn(C)cc23)CC1 [Compound 471],–,–,–,–,< 0.1,< 0.1,< 0.1,< 0.1
